Data taken from patent publication US9409952B2, “Peptide-compound cyclization method” (Chugai Seiyaku Kabushiki Kaisha, priority 2011, dated 2016).
Read-outs that look alike come from different tables or passages of the source. Starred links: 1 amine or outer side, 2 acyl side, 3 side chain; linkers in the order of their positions; H or OH if unused. Positions of bridges follow the written chain, without caps; N, C: chain ends. Non-standard residues stand in square brackets, D forms with d. Residues, ends and D or L forms follow the SMILES beside them. *: point of attachment. NMeF = CN[C@@H](Cc1ccccc1)C(=O)O; NMeGABA = CN(CCCC(=O)[*:2])[*:1]; NMeI = CC[C@H](C)[C@H](NC)C(=O)O; NMeβAla = CN(CCC(=O)[*:2])[*:1]; NMeL = CN[C@@H](CC(C)C)C(=O)O; NMeV = CN[C@H](C(=O)O)C(C)C; NMeA = CN[C@@H](C)C(=O)O; Piperidide = C1CCN(*)CC1; dNMeA = CN[C@H](C)C(=O)O; Sar = CNCC(=O)O; tBu = CC(C)(C)*

Tests used:
[1] = Metabolic stability in human hepatic microsome; assay type: in vitro ADME; details: microsomes
[2] = PAMPA (parallel artificial membrane permeability assay); assay type: in vitro ADME; details: PAMPA
Method in brief: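 Artificial membrane was 10% (w/v) egg lecithin plus 0.5% (w/v) cholesterol in dodecane on a PVDF filter. A 10 mM DMSO stock was added at 0.5% (v/v) to donor buffer (50 mM MOPSO, pH 6.5, 5.0% glycocholic acid). After 18 h at 37 °C, LC/MS or LC/UV gave donor and acceptor levels for Pe.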

[3] = pH 7.4, human hepatic microsome, NADPH(+), read-out: CL NADPH(+)
[4] = membrane permeation rate (Pe), 50 mM MOPSO buffer pH 6.5 with 5.0% glycocholic acid, 37° C., 18 hours, read-out: iPAMPA Pe

Row | SMILES | microsomal CLint at 1 uM ([1]; human, pH 7.4, CL NADPH(+)) [µL/min/mg] | Papp at 18 hours, 50 µM ([2]; pH 6.5) [×10⁻⁶ cm/s] | microsomal CLint at 1 uM [1, 3] [µL/min/mg] | Papp at 18 hours, 50 µM [2, 4] [×10⁻⁶ cm/s]
1 | CC[C@H](C)[C@H](NC(=O)[C@H](C)N(C)C(=O)[C@H](CC(C)C)N(C)C(=O)[C@@H](NC(=O)[C@@H]1CC(=O)N(C)[C@@H](C)C(=O)N[C@@H]([C@@H](C)O)C(=O)N(C)[C@@H](Cc2ccccc2)C(=O)N[C@@H](C(C)C)C(=O)N2CCC[C@H]2C(=O)N(C)[C@@H](Cc2ccccc2)C(=O)N[C@@H](CC(C)C)C(=O)N(C)[C@@H](Cc2ccccc2)C(=O)N1)C(C)C)C(=O)N1CCCCC1 [DP-943] ([NMeA]T[NMeF]VP[NMeF]L[NMeF]DV[NMeL][NMeA]I-Piperidide; lactam N-9) | 7 | 0.1 |  | 
2 | CC(C)C[C@H]1C(=O)N[C@@H]([C@@H](C)O)C(=O)N(C)[C@@H](Cc2ccccc2)C(=O)N(C)[C@@H](CC(C)C)C(=O)NCC(=O)N(C)[C@@H](C(C)C)C(=O)N[C@@H](Cc2ccccc2)C(=O)N[C@H](C(=O)N(C)[C@@H](Cc2ccccc2)C(=O)N[C@@H](C)C(=O)N2CCCCC2)CC(=O)N(C)[C@H](C)C(=O)N[C@@H](C(C)C)C(=O)N1C [DP-301] ([dNMeA]V[NMeL]T[NMeF][NMeL]G[NMeV]FD[NMeF]A-Piperidide; lactam N-10) | 184 | 15 |  | 
3 | CC(C)C[C@H]1C(=O)N[C@@H]([C@@H](C)O)C(=O)N(C)[C@@H](C)C(=O)N(C)[C@@H](CC(C)C)C(=O)N[C@H](C(=O)N(C)[C@@H](Cc2ccccc2)C(=O)N[C@@H](C)C(=O)N2CCCCC2)CC(=O)N(C)CCC(=O)N(C)[C@@H](Cc2ccccc2)C(=O)N(C)[C@@H](C(C)C)C(=O)N[C@@H](C(C)C)C(=O)N1C [DP-358] ([NMeβAla][NMeF][NMeV]V[NMeL]T[NMeA][NMeL]D[NMeF]A-Piperidide; lactam N-9) |  |  | 82 | 32
4 | CC(C)C[C@@H]1NC(=O)[C@H](Cc2ccccc2)N(C)C(=O)CNC(=O)[C@H](Cc2ccccc2)NC(=O)[C@H]([C@@H](C)O)NC(=O)[C@H](CC(C)C)N(C)C(=O)CCN(C)C(=O)C[C@@H](C(=O)N2CCCCC2)NC(=O)[C@H](COC(C)(C)C)NC(=O)[C@H](CC(C)C)N(C)C1=O [DP-335] ([NMeβAla][NMeL]TFG[NMeF]L[NMeL]S(tBu)D-Piperidide; lactam N-10) |  |  | 109 | 22
5 | CC(C)C[C@H]1C(=O)N[C@@H]([C@@H](C)O)C(=O)N(C)[C@@H](Cc2ccccc2)C(=O)N(C)[C@@H](CC(C)C)C(=O)NCC(=O)N(C)[C@@H](C(C)C)C(=O)N[C@@H](Cc2ccccc2)C(=O)N[C@H](C(=O)N(C)[C@@H](Cc2ccccc2)C(=O)N(C)[C@@H](Cc2ccccc2)C(=O)N[C@@H](C)C(=O)N2CCCCC2)CC(=O)N[C@H](C(C)C)C(=O)N[C@@H](C(C)C)C(=O)N1C [DP-205] ([dV]V[NMeL]T[NMeF][NMeL]G[NMeV]FD[NMeF][NMeF]A-Piperidide; lactam N-10) |  |  | 29 | 0.12
6 | CC(C)C[C@H]1C(=O)N(C)[C@@H](CC(C)C)C(=O)N(C)CC(=O)N(C)[C@@H](Cc2ccccc2)C(=O)N[C@@H](C)C(=O)N(C)[C@@H](Cc2ccccc2)C(=O)N(C)[C@@H](CC(C)C)C(=O)N[C@@H]([C@@H](C)O)C(=O)N[C@H](C(=O)N2CCCCC2)CC(=O)N[C@H](C(C)C)C(=O)N(C)[C@@H](C)C(=O)N1C [DP-151] ([dV][NMeA][NMeL][NMeL][Sar][NMeF]A[NMeF][NMeL]TD-Piperidide; lactam N-11) |  |  | 30 | 27
7 | CC(C)C[C@@H]1NC(=O)CCN(C)C(=O)C[C@@H](C(=O)N2CCCCC2)NC(=O)[C@H](Cc2ccccc2)N(C)C(=O)CNC(=O)[C@H]([C@@H](C)O)NC(=O)[C@H](Cc2ccccc2)NC(=O)[C@H](CC(C)C)N(C)C(=O)[C@H](CC(C)C)NC(=O)[C@H](Cc2ccccc2)NC1=O [DP-117] ([NMeβAla]LFL[NMeL]FTG[NMeF]D-Piperidide; lactam N-10) |  |  | 194 | 25
8 | CC[C@H](C)[C@H]1C(=O)N(C)[C@@H](Cc2ccccc2)C(=O)N[C@@H](CC(C)C)C(=O)N[C@H](C(=O)N2CCCCC2)CC(=O)N(C)CCCC(=O)N(C)[C@@H](CC(C)C)C(=O)N[C@@H]([C@@H](C)O)C(=O)N(C)[C@@H](Cc2ccccc2)C(=O)N(C)[C@@H](CC(C)C)C(=O)N(C)[C@@H](CC(C)C)C(=O)N[C@@H](C)C(=O)N1C [DP-248] ([NMeGABA][NMeL]T[NMeF][NMeL][NMeL]A[NMeI][NMeF]LD-Piperidide; lactam N-11) |  |  | 36 | 2.6
9 | CC[C@H](C)[C@@H]1NC(=O)[C@H](C(C)C)N(C)C(=O)[C@@H](C)N(C)C(=O)C[C@@H](C(=O)N2CCCCC2)NC(=O)[C@H](CC(C)C)NC(=O)[C@H](Cc2ccccc2)N(C)C(=O)[C@H](CC(C)C)N(C)C(=O)[C@H](Cc2ccccc2)NC(=O)[C@H]([C@@H](C)O)NC(=O)[C@H](CC(C)C)NC1=O [DP-339] ([dNMeA][NMeV]ILTF[NMeL][NMeF]LD-Piperidide; lactam N-10) |  |  | 213 | 18
